The results in this text go back to the OligoGym collection.

Several values for one entry are separate records, joined by “and”; a condition that tells them apart may be missing. Identical values can stand only once. HELM strings list units from the 5' end as sugar, base in round brackets, then linkage (d deoxyribose, r ribose, m 2'-O-methyl, p phosphodiester). Strings are as the collection lists them; they lack the last nucleoside at the 3' end of the tested compound. [moe] = 2'-O-(2-methoxyethyl) (MOE); [sp] = phosphorothioate linkage; [m5C] = 5-methylcytosine

In this data set the target is SMN2. Nature of the data set: mouse, dose not given. To be noted: ASO.
“RNA1{[moe]([m5C])[sp].[moe](A)[sp].[moe]([m5C])[sp].[moe](T)[sp].[moe](T)[sp].[moe](T)[sp].[moe]([m5C])[sp].[moe](A)[sp].[moe](T)[sp].[moe](A)[sp].[moe](A)p.[moe](T)[sp].[moe](G)[sp].[moe]([m5C])[sp].[moe](T)[sp].[moe](G)[sp].[moe](G)}$$$$ (last 3' nucleoside missing)”: the 3 h FOB score was 0.25 score 0-7.

In the case of “RNA1{[moe](A)[sp].[moe](T)[sp].[moe](T)[sp].[moe]([m5C])[sp].[moe](A)[sp].[moe]([m5C])[sp].[moe](T)[sp].[moe](T)[sp].[moe](T)[sp].[moe]([m5C])p.[moe](A)[sp].[moe](T)[sp].[moe](A)[sp].[moe](A)[sp].[moe](T)[sp].[moe](G)[sp].[moe]([m5C])p.[moe](T)[sp].[moe](G)}$$$$ (last 3' nucleoside missing)”, the 3 h FOB score came out at 2.75 score 0-7.

Turning to “RNA1{[moe]([m5C])[sp].[moe](T)[sp].[moe](T)[sp].[moe](T)[sp].[moe]([m5C])[sp].[moe](A)p.[moe](T)p.[moe](A)p.[moe](A)p.[moe](T)p.[moe](G)p.[moe]([m5C])[sp].[moe](T)[sp].[moe](G)[sp].[moe](G)}$$$$ (last 3' nucleoside missing)”, the 3 h FOB score turned out to be 0.75 score 0-7.

The substance “RNA1{[moe](A)[sp].[moe]([m5C])[sp].[moe](T)[sp].[moe](T)[sp].[moe](T)[sp].[moe]([m5C])p.[moe](A)p.[moe](T)p.[moe](A)p.[moe](A)p.[moe](T)p.[moe](G)p.[moe]([m5C])[sp].[moe](T)[sp].[moe](G)[sp].[moe](G)}$$$$ (last 3' nucleoside missing)” had a 3 h FOB score of 0 score 0-7.

The substance “RNA1{[moe]([m5C])[sp].[moe](T)[sp].[moe](T)[sp].[moe](T)[sp].[moe]([m5C])[sp].[moe](A)[sp].[moe](T)p.[moe](A)p.[moe](A)p.[moe](T)p.[moe](G)[sp].[moe]([m5C])[sp].[moe](T)[sp].[moe](G)[sp].[moe](G)}$$$$ (last 3' nucleoside missing)” had a 3 h FOB score of 0.75 score 0-7.

In the case of “RNA1{[moe](T)[sp].[moe]([m5C])[sp].[moe](A)[sp].[moe]([m5C])[sp].[moe](T)[sp].[moe](T)[sp].[moe](T)[sp].[moe]([m5C])p.[moe](A)p.[moe](T)[sp].[moe](A)[sp].[moe](A)[sp].[moe](T)[sp].[moe](G)[sp].[moe]([m5C])[sp].[moe](T)[sp].[moe](G)}$$$$ (last 3' nucleoside missing)”, the 3 h FOB score was 4 score 0-7.

The substance “RNA1{[moe](A)[sp].[moe]([m5C])[sp].[moe](T)p.[moe](T)[sp].[moe](T)[sp].[moe]([m5C])[sp].[moe](A)[sp].[moe](T)[sp].[moe](A)[sp].[moe](A)[sp].[moe](T)[sp].[moe](G)[sp].[moe]([m5C])[sp].[moe](T)p.[moe](G)[sp].[moe](G)}$$$$ (last 3' nucleoside missing)” gave a 3 h FOB score of 0 score 0-7.

“RNA1{[moe](T)[sp].[moe]([m5C])[sp].[moe](A)[sp].[moe]([m5C])[sp].[moe](T)[sp].[moe](T)[sp].[moe](T)[sp].[moe]([m5C])[sp].[moe](A)[sp].[moe](T)[sp].[moe](A)[sp].[moe](A)[sp].[moe](T)[sp].[moe](G)p.[moe]([m5C])[sp].[moe](T)[sp].[moe](G)}$$$$ (last 3' nucleoside missing)” returned a 3 h FOB score of 3.75 score 0-7.

The substance “RNA1{[moe]([m5C])[sp].[moe](T)[sp].[moe](T)p.[moe](T)[sp].[moe]([m5C])[sp].[moe](A)[sp].[moe](T)[sp].[moe](A)[sp].[moe](A)[sp].[moe](T)[sp].[moe](G)[sp].[moe]([m5C])[sp].[moe](T)p.[moe](G)[sp].[moe](G)}$$$$ (last 3' nucleoside missing)” came in with a 3 h FOB score of 0.5 score 0-7.

For the substance “RNA1{[moe](T)[sp].[moe]([m5C])[sp].[moe](A)[sp].[moe]([m5C])[sp].[moe](T)[sp].[moe](T)[sp].[moe](T)[sp].[moe]([m5C])[sp].[moe](A)[sp].[moe](T)[sp].[moe](A)[sp].[moe](A)[sp].[moe](T)[sp].[moe](G)[sp].[moe]([m5C])[sp].[moe](T)[sp].[moe](G)[sp].[moe](G)p.[moe](A)}$$$$ (last 3' nucleoside missing)”, the 3 h FOB score is 3.75 score 0-7 and 4 score 0-7 (3×).

With “RNA1{[moe](T)[sp].[moe]([m5C])p.[moe](A)[sp].[moe]([m5C])[sp].[moe](T)[sp].[moe](T)[sp].[moe](T)[sp].[moe]([m5C])[sp].[moe](A)[sp].[moe](T)[sp].[moe](A)[sp].[moe](A)[sp].[moe](T)[sp].[moe](G)[sp].[moe]([m5C])p.[moe](T)[sp].[moe](G)}$$$$ (last 3' nucleoside missing)”, the 3 h FOB score came to 3.5 score 0-7.

With “RNA1{[moe]([m5C])[sp].[moe](T)[sp].[moe](T)p.[moe](T)[sp].[moe]([m5C])[sp].[moe](A)p.[moe](T)[sp].[moe](A)[sp].[moe](A)p.[moe](T)[sp].[moe](G)[sp].[moe]([m5C])p.[moe](T)[sp].[moe](G)[sp].[moe](G)}$$$$ (last 3' nucleoside missing)”, the 3 h FOB score worked out at 0 score 0-7.

In the case of “RNA1{[moe](T)[sp].[moe]([m5C])[sp].[moe](A)[sp].[moe]([m5C])[sp].[moe](T)[sp].[moe](T)[sp].[moe](T)[sp].[moe]([m5C])[sp].[moe](A)[sp].[moe](T)[sp].[moe](A)[sp].[moe](A)[sp].[moe](T)[sp].[moe](G)[sp].[moe]([m5C])[sp].[moe](T)[sp].[moe](G)[sp].[moe](G)p.d(A)}$$$$ (last 3' nucleoside missing)”, the 3 h FOB score is 4 score 0-7 (2×) and 4.25 score 0-7 (2×) and 3.75 score 0-7 (2×).

In the case of “RNA1{[moe](T)[sp].[moe](T)p.[moe]([m5C])[sp].[moe](A)[sp].[moe]([m5C])[sp].[moe](T)[sp].[moe](T)[sp].[moe](T)[sp].[moe]([m5C])[sp].[moe](A)[sp].[moe](T)[sp].[moe](A)[sp].[moe](A)[sp].[moe](T)[sp].[moe](G)[sp].[moe]([m5C])p.[moe](T)[sp].[moe](G)}$$$$ (last 3' nucleoside missing)”, the 3 h FOB score came out at 1 score 0-7.

In turn, “RNA1{[moe](T)[sp].[moe](T)p.[moe]([m5C])[sp].[moe](A)[sp].[moe]([m5C])[sp].[moe](T)[sp].[moe](T)[sp].[moe](T)[sp].[moe]([m5C])p.[moe](A)[sp].[moe](T)[sp].[moe](A)[sp].[moe](A)[sp].[moe](T)[sp].[moe](G)[sp].[moe]([m5C])[sp].[moe](T)[sp].[moe](G)}$$$$ (last 3' nucleoside missing)” displayed a 3 h FOB score of 2.5 score 0-7.

In the case of “RNA1{[moe]([m5C])[sp].[moe](T)[sp].[moe](T)[sp].[moe](T)[sp].[moe]([m5C])p.[moe](A)p.[moe](T)p.[moe](A)p.[moe](A)p.[moe](T)p.[moe](G)p.[moe]([m5C])[sp].[moe](T)[sp].[moe](G)[sp].[moe](G)}$$$$ (last 3' nucleoside missing)”, the 3 h FOB score was 0 score 0-7.

Take “RNA1{[moe]([m5C])[sp].[moe](A)[sp].[moe]([m5C])[sp].[moe](T)[sp].[moe](T)[sp].[moe](T)p.[moe]([m5C])p.[moe](A)[sp].[moe](T)[sp].[moe](A)[sp].[moe](A)[sp].[moe](T)[sp].[moe](G)[sp].[moe]([m5C])[sp].[moe](T)[sp].[moe](G)[sp].[moe](G)}$$$$ (last 3' nucleoside missing)”: the 3 h FOB score worked out at 0 score 0-7.

In turn, “RNA1{[moe](T)[sp].[moe]([m5C])p.[moe](A)[sp].[moe]([m5C])[sp].[moe](T)[sp].[moe](T)[sp].[moe](T)[sp].[moe]([m5C])[sp].[moe](A)[sp].[moe](T)[sp].[moe](A)[sp].[moe](A)[sp].[moe](T)[sp].[moe](G)[sp].[moe]([m5C])[sp].[moe](T)[sp].[moe](G)}$$$$ (last 3' nucleoside missing)” showed a 3 h FOB score of 3.25 score 0-7.

“RNA1{[moe]([m5C])[sp].[moe](A)[sp].[moe]([m5C])p.[moe](T)[sp].[moe](T)[sp].[moe](T)[sp].[moe]([m5C])[sp].[moe](A)[sp].[moe](T)[sp].[moe](A)[sp].[moe](A)[sp].[moe](T)[sp].[moe](G)[sp].[moe]([m5C])[sp].[moe](T)p.[moe](G)[sp].[moe](G)}$$$$ (last 3' nucleoside missing)” registered a 3 h FOB score of 0 score 0-7.

In the case of “RNA1{[moe](A)[sp].[moe]([m5C])[sp].[moe](T)[sp].[moe](T)[sp].[moe](T)[sp].[moe]([m5C])[sp].[moe](A)[sp].[moe](T)p.[moe](A)p.[moe](A)p.[moe](T)[sp].[moe](G)[sp].[moe]([m5C])[sp].[moe](T)[sp].[moe](G)[sp].[moe](G)}$$$$ (last 3' nucleoside missing)”, the 3 h FOB score was 1 score 0-7.

“RNA1{[moe]([m5C])[sp].[moe](A)[sp].[moe]([m5C])[sp].[moe](T)[sp].[moe](T)[sp].[moe](T)[sp].[moe]([m5C])p.[moe](A)p.[moe](T)p.[moe](A)p.[moe](A)p.[moe](T)[sp].[moe](G)[sp].[moe]([m5C])[sp].[moe](T)[sp].[moe](G)[sp].[moe](G)}$$$$ (last 3' nucleoside missing)” came in with a 3 h FOB score of 0 score 0-7.

Regarding “RNA1{[moe]([m5C])[sp].[moe](A)[sp].[moe]([m5C])[sp].[moe](T)[sp].[moe](T)[sp].[moe](T)[sp].[moe]([m5C])[sp].[moe](A)[sp].[moe](T)p.[moe](A)[sp].[moe](A)[sp].[moe](T)[sp].[moe](G)[sp].[moe]([m5C])[sp].[moe](T)[sp].[moe](G)[sp].[moe](G)}$$$$ (last 3' nucleoside missing)”, the 3 h FOB score was found to be 0 score 0-7.

For “RNA1{[moe](A)[sp].[moe]([m5C])[sp].[moe](T)[sp].[moe](T)[sp].[moe](T)[sp].[moe]([m5C])[sp].[moe](A)[sp].[moe](T)[sp].[moe](A)[sp].[moe](A)[sp].[moe](T)[sp].[moe](G)[sp].[moe]([m5C])[sp].[moe](T)[sp].[moe](G)[sp].[moe](G)}$$$$ (last 3' nucleoside missing)”, the 3 h FOB score came to 1.12 score 0-7.

Turning to “RNA1{[moe]([m5C])[sp].[moe](T)[sp].[moe](T)p.[moe](T)[sp].[moe]([m5C])[sp].[moe](A)p.[moe](T)[sp].[moe](A)[sp].[moe](A)p.[moe](T)[sp].[moe](G)p.[moe]([m5C])[sp].[moe](T)p.[moe](G)[sp].[moe](G)}$$$$ (last 3' nucleoside missing)”, the 3 h FOB score was determined as 0 score 0-7.
